pIC50: −log10 of the molar value.
Key:
human cathepsin K = human cathepsin K (UniProt P43236); assay: Cathepsin K Assay (hrbCat K); type: biochemical; details: human cathepsin K 0.4 nM, Z-Leu-Arg-AMC 8 μM, pH 5.5, 15 min preincubation; read-out: hrbCat K IP
Protocol: Cathepsin K Assay (hrbCat K)
(§1) Serial dilutions (⅓) from 500 μM down to 0.025 μM of test compounds were prepared in dimethyl sulfoxide (DMSO). Then 0.5 μL of DMSO from each dilution were added to 18.75 μL of assay buffer (MES, 50 mM (pH 5.5); EDTA, 2.5 mM; DTT, 2.5 mM and 10% DMSO) containing human cathepsin K (0.4 nM) in assay buffer solution. The assay solutions were mixed for 5-10 seconds on a shaker plate and incubated for 15 minutes at room temperature. Z-Leu-Arg-AMC (8 μM) in 6.25 μL of assay buffer was added to the assay solutions. Hydrolysis of the coumarin leaving group (AMC) was followed by spectrofluorometry (Exλ=360 nm; Emλ=460 nm) for 30 minutes. Percent of inhibition were calculated by fitting experimental values to standard mathematical model for dose response curve.

human cathepsin F = biological target: T1, human cathepsin F (Homo sapiens, UniProt Q9UBX1); assay: Cathepsin F assay (hCat F); type: biochemical; details: human cathepsin F 10 nM, Z-Phe-Arg-AMC 8 μM, pH 5.5, 15 min preincubation; read-out: hCat F IP
T1 sequence (Q9UBX1 271-484): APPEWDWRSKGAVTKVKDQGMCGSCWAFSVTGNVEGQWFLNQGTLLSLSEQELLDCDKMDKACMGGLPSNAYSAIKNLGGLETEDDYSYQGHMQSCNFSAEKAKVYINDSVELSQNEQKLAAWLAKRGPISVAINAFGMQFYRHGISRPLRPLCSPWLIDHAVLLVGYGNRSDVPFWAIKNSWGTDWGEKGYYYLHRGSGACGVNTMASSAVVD
Protocol: Cathepsin F assay (hCat F)
as §1, with “F (10” for “K (0.4”, “Z-Phe-Arg-AMC” for “Z-Leu-Arg-AMC”, “(Exp, =360” for “(Exλ=360”, “EmX=460” for “Emλ=460”, “20” for “30”

Row | Compound | pIC50 (human cathepsin K) | pIC50 (human cathepsin F)
1 | N#CC1(NC(=O)[C@@H]2CCCC[C@H]2c2oc(-c3nccs3)nc2-c2ccc(N3CCS(=O)(=O)CC3)cc2)CC1 [Example 78, (1R,2R)-N-(1-cyanocyclopropyl)-2-(4-(4-(1,1-dioxidothiomorpholino)phenyl)-2-(thiazol-2-yl)oxazol-5-yl)cyclohexanecarboxamide] | 8.60 | 5.58
2 | N#CC1(NC(=O)[C@@H]2CCCC[C@H]2c2oc(-c3cccnc3)nc2-c2ccc(N3CCS(=O)(=O)CC3)cc2)CC1 [Example 29, (1R,2R)-N-(1-cyanocyclopropyl)-2-(4-(4-(1,1-dioxidothiomorpholino)phenyl)-2-(pyridin-3-yl)oxazol-5-yl)cyclohexanecarboxamide] | 9.32 | 6.25
3 | N#CC1(NC(=O)[C@@H]2CC(C(F)F)CC[C@H]2c2oc(-c3ccc(F)cc3)nc2-c2ccc(N3CCS(=O)(=O)CC3)cc2)CC1 (mixture of isomers) [Example 138, (1R,2R,5R and 1R,2R,5S)-N-(1-cyanocyclopropyl)-5-(difluoromethyl)-2-(4-(4-(1,1-dioxidothiomorpholino)phenyl)-2-(4-fluorophenyl)oxazol-5-yl)cyclohexanecarboxamide] | 7.91 | 6.82
4 | N#CC1(NC(=O)[C@@H]2CC(F)(F)CC[C@H]2c2sc(CC(F)(F)F)nc2-c2ccc(N3CCS(=O)(=O)CC3)cc2)CC1 [Example 57, (1R,2R)-N-(1-cyanocyclopropyl)-2-(4-(4-(1,1-dioxidothiomorpholino)phenyl)-2-(2,2,2-trifluoroethyl)thiazol-5-yl)-5,5-difluorocyclohexane-carboxamide] | 9.24 | 7.03
5 | N#CC1(NC(=O)[C@@H]2CCCC[C@H]2c2oc(-c3ccccc3OC(F)(F)F)nc2-c2ccc(N3CCS(=O)(=O)CC3)cc2)CC1 [Example 63, (1R,2R)-N-(1-cyanocyclopropyl)-2-(4-(4-(1,1-dioxidothiomorpholino)phenyl)-2-(2-(trifluoromethoxy)phenyl)oxazol-5-yl)cyclohcxanecarboxamide] | 8.91 | 6.19
6 | CC(C)(C)c1nc(-c2ccc(N3CCS(=O)(=O)CC3)cc2)c([C@@H]2CC[C@H](F)C[C@H]2C(=O)NC2(C#N)CC2)o1 [Example 147, (1R,2R,5S)-2-(2-(tert-butyl)-4-(4-(1,1-dioxidothiomorpholino)phenyl)oxazol-5-yl)-N-(1-cyanocyclopropyl)-5-fluorocyclohexane-carboxamide] | 8.82 | 5.62
7 | N#CC(CC(F)(F)F)NC(=O)[C@@H]1CCCC[C@H]1c1oc(-c2ccc(F)cc2)nc1-c1ccc(N2CCS(=O)(=O)CC2)cc1 (single isomer, unassigned) [Example 132, (1R,2R)-N-((S or R)-1-cyano-3,3,3-trifluoropropyl)-2-(4-(4-(1,1-dioxidothiomorpholino)phenyl)-2-(4-fluorophenyl)oxazol-5-yl)cyclohexanecarboxamide] | 8.75 | 6.17
8 | N#CC1(NC(=O)[C@@H]2CCCC[C@H]2c2oc(C3CC4CC4C3)nc2-c2ccc(N3CCS(=O)(=O)CC3)cc2)CC1 (mixture of isomers) [Example 118, (1R,2R)-2-(2-((1R,3R,5S and 1R,3S,5S)-bicyclo[3.1.0]hexan-3-yl)-4-(4-(1,1-dioxidothiomorpholino)phenyl)oxazol-5-yl)-N-(1-cyanocyclopropyl) cyclohexanecarboxamide] | 9.07 | 6.12
9 | N#CC1(NC(=O)[C@@H]2CCCC[C@H]2c2oc(-c3ccc(F)cn3)nc2-c2ccc(N3CCS(=O)(=O)CC3)cc2)CC1 [Example 32, (1R,2R)-N-(1-cyanocyclopropyl)-2-(4 (4-(1,1-dioxidothiomorpholino)phenyl)-2-(5-fluoropyridin-2-yl)oxazol-5-yl)cyclohexanecarboxamide] | 8.51 | 5.60
10 | N#CC(CC(F)(F)F)NC(=O)[C@@H]1CCCC[C@H]1c1oc(-c2ccc(F)cc2)nc1-c1ccc(N2CCS(=O)(=O)CC2)cc1 (single isomer, unassigned) [Example 131, (1R,2R)-N-((R or S)-1-cyano-3,3,3-trifluoropropyl)-2-(4-(4-(1,1-dioxidothiomorpholino)phenyl)-2-(4-fluorophenyl)oxazol-5-yl)cyclohexanecarboxamide] | 9.19 | 7.85
11 | N#CC1(NC(=O)[C@@H]2CCCC[C@H]2c2oc(-c3ccc(F)cc3)nc2-c2ccc(N3CCS(=O)(=O)CC3)cc2)COC1 [Example 153, (1R,2R)-N-(3-cyanooxetan-3-yl)-2-(4-(4-(1,1-dioxidothiomorpholino)phenyl)-2-(4-fluorophenyl)oxazol-5-yl)cyclohexanecarboxamide] | 9.17 | 6.68
12 | N#CC1(NC(=O)[C@@H]2CCCC[C@H]2c2sc(-c3ccc(F)cc3)nc2-c2ccc(N3CCS(=O)(=O)CC3)cc2)CC1 [Example 56, (1R,2R)-N-(1-cyanocyclopropyl)-2-(4-(4-(1,1-dioxidothiomorpholino)phenyl)-2-(4-fluorophenyl)thiazol-5-yl)cyclohexanecarboxamide] | 8.50 | 6.14
13 | N#CC1(NC(=O)[C@@H]2CCCC[C@H]2c2oc(C3CCC(F)(F)C3)nc2-c2ccc(N3CCS(=O)(=O)CC3)cc2)CC1 (mixture of isomers) [Example 114, (1R,2R)-N-(1-cyanocyclopropyl)-2-(2-((R and S)-3,3-difluorocyclopentyl)-4-(4-(1,1-dioxidothiomorpholino)phenyl)oxazol-5-yl)cyclohexanecarboxamide] | 8.77 | 5.82
14 | Cc1nc(-c2ccc(N3CCS(=O)(=O)CC3)cc2)c([C@@H]2CCCC[C@H]2C(=O)NC2(C#N)CC2)o1 [Example 14, (1R,2R)-N-(1-cyanocyclopropyl)-2-(4-(4-(1,1-dioxidothiomorpholino)phenyl)-2-methyloxazol-5-yl)cyclohexanecarboxamide] | 8.97 | 5.88
15 | N#CC1(NC(=O)[C@@H]2CCCC[C@H]2c2oc(-c3ncccc3F)nc2-c2ccc(N3CCS(=O)(=O)CC3)cc2)CC1 [Example 84, (1R,2R)-N-(1-cyanocyclopropyl)-2-(4-(4-(1,1-dioxidothiomorpholino)phenyl)-2-(3-fluoropyridin-2-yl)oxazol-5-yl)cyclohexanecarboxamide] | 8.53 | 5.37
16 | N#C[C@H](NC(=O)[C@@H]1CCCC[C@H]1c1oc(-c2ccc(F)cc2)nc1-c1ccc(N2CCS(=O)(=O)CC2)cc1)C1CCOCC1 [Example 127, (1R,2R)-N-((R)-cyano(tetrahydro-2H-pyran-4-yl)methyl)-2-(4-(4-(1,1-dioxidothiomorpholino)phenyl)-2-(4-fluorophenyl)oxazol-5-yl)cyclohexanecarboxamide] | 7.31 | ≤ 5.00
17 | N#C[C@@H](NC(=O)[C@@H]1CCCC[C@H]1c1oc(-c2ccc(F)cc2)nc1-c1ccc(N2CCS(=O)(=O)CC2)cc1)C1CC1 [Example 155, (1R,2R)-N-((S)-cyano(cyclopropyl)methyl)-2-(4-(4-(1,1-dioxidothiomorpholino)phenyl)-2-(4-fluorophenyl)oxazol-5-yl)cyclohexanecarboxamide] | 9.14 | 7.43
18 | N#CC1(NC(=O)[C@@H]2CCCC[C@H]2c2oc(-c3ccncc3F)nc2-c2ccc(N3CCS(=O)(=O)CC3)cc2)CC1 [Example 30, (1R,2R)-N-(1-cyanocyclopropyl)-2-(4-(4-(1,1-dioxidothiomorpholino)phenyl)-2-(3-fluoropyridin-4-yl)oxazol-5-yl)cyclohcxanecarboxamide] | 9.37 | 6.12
19 | N#CC1(NC(=O)[C@@H]2CCCC[C@H]2c2oc(CC(F)(F)F)nc2-c2ccc(N3CCS(=O)(=O)CC3)cc2)CC1 [Example 15, (1R,2R)-N-(1-cyanocyclopropyl)-2-(4-(4-(1,1-dioxidothiomorpholino)phenyl)-2-(2,2,2-trifluoroethyl)oxazol-5-yl)cyclohexanecarboxamide] | 8.74 | 6.19
20 | C[C@@H](C#N)NC(=O)[C@@H]1CCCC[C@H]1c1oc(-c2ccc(F)cc2)nc1-c1ccc(N2CC[S+]([O-])CC2)cc1 [Example 141, (1R,2R)-N-((S)-1-cyanoethyl)-2-(2-(4-fluorophenyl)-4-(4-(1-oxidothiomorpholino)phenyl)oxazol-5-yl)cyclohexanecarboxamide] | 9.05 | 6.78

— patent US9458181B2, “Cathepsin cysteine protease inhibitors” (Merck Sharp & Dohme Corp., priority 2013, dated 2016)
